From the supplement of paper PMC6045584
± gives the standard deviation of the averaged measurements.

What was measured:
SAPACITABINE = compound: CCCCCCCCCCCCCCCC(=O)Nc1ccn([C@@H]2O[C@H](CO)[C@@H](O)[C@@H]2C#N)c(=O)n1 [SAPACITABINE]; assay: area under dose-response curve of surviving fraction (unscaled, Aref=0) (surviving fraction x log10(nM)); higher = more resistant; conditions: exposure time: 5 days; dose range 0.5-1000 nM
How it was run: (§1)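 Surviving fractions were fitted by 3-parameter logistic regression in the drc R package to give dose-response survival curves. They came from tumour cell lines treated for five days with eight inhibitor concentrations from 0.5 to 1000 nM and read by CellTiter-Glo luminescence against DMSO-only wells. The area under the curve is the unscaled activity area. It was calculated over log10 dose with Aref = 0.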

[1] = compound: Cn1cc(C2=Nc3cc(NC(=O)C(N)C4CCCCC4)cc4c3C2=CNNC4=O)cn1; assay: as above; conditions: exposure time: 5 days; dose range 0.5-1000 nM
How it was run: as §1

AFATINIB [2] = compound: T1, CN(C)C/C=C/C(=O)Nc1cc2c(Nc3ccc(F)c(Cl)c3)ncnc2cc1O[C@H]1CCOC1 [AFATINIB]; assay: as above; conditions: exposure time: 5 days; dose range 0.5-1000 nM
How it was run: as §1

SNX-5422 = compound: CC1(C)CC(=O)c2c(C(F)(F)F)nn(-c3ccc(C(N)=O)c(N[C@H]4CC[C@H](OC(=O)CN)CC4)c3)c2C1 [SNX-5422]; assay: as above; conditions: exposure time: 5 days; dose range 0.5-1000 nM
How it was run: as §1

[3] = compound: Cn1cc(C2=Nc3cc(NC(=O)C(N)C4CCCCC4)cc4c3C2=CNNC4=O)cn1; assay: surviving fraction relative to DMSO-only wells; higher = less growth inhibition; conditions: exposure time: 5 days
How it was run: (§2)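 Lines were retained only if, across three screens, replicate Pearson r was >0.7 and median Z' was >0.3. Viability was measured as CellTiter-Glo luminescence and reported as surviving fraction relative to the median of DMSO-only wells. Readings followed 10 minutes at room temperature, after log-phase tumour cells seeded at 250–500 per well in 384-well plates had been exposed, from 24 hours after seeding, continuously for five days to inhibitors at 0.5, 1, 5, 10, 50, 100, 500 and 1000 nM.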

AFATINIB [4] = compound: T1, AFATINIB; assay: as above; conditions: exposure time: 5 days
How it was run: as §2

| Test System | area under dose-response curve (SAPACITABINE) | area under dose-response curve [1] | area under dose-response curve (AFATINIB [2]) | area under dose-response curve (SNX-5422) | surviving fraction ([3]; 0.5 nM) | surviving fraction ([3]; 1 nM) | surviving fraction ([3]; 5 nM) | surviving fraction ([3]; 10 nM) | surviving fraction ([3]; 50 nM) | surviving fraction ([3]; 100 nM) | surviving fraction ([3]; 500 nM) | surviving fraction ([3]; 1000 nM) | surviving fraction (AFATINIB [4]; 0.5 nM) | surviving fraction (AFATINIB [4]; 1 nM) | surviving fraction (AFATINIB [4]; 5 nM) | surviving fraction (AFATINIB [4]; 10 nM) | surviving fraction (AFATINIB [4]; 50 nM) | surviving fraction (AFATINIB [4]; 100 nM) | surviving fraction (AFATINIB [4]; 500 nM) | surviving fraction (AFATINIB [4]; 1000 nM) |
| --- | --- | --- | --- | --- | --- | --- | --- | --- | --- | --- | --- | --- | --- | --- | --- | --- | --- | --- | --- | --- |
| G292 BONE | 2.32 | 2.19 | 3.06 | 2.01 | 1.03 ± 0.019 | 0.968 ± 0.051 | 1.02 ± 0.077 | 1.04 ± 0.029 | 0.631 ± 0.018 | 0.315 ± 0.0083 | 0.11 ± 0.0059 | 0.0638 ± 0.0015 | 1 ± 0.064 | 0.998 ± 0.029 | 1.07 ± 0.027 | 0.995 ± 0.037 | 1.03 ± 0.02 | 0.982 ± 0.028 | 0.717 ± 0.032 | 0.447 ± 0.027 |
| PCI30 HEADNECK | 2.94 | 2.65 | 1.61 | 2.2 | 0.977 ± 0.021 | 0.929 ± 0.027 | 0.994 ± 0.051 | 0.945 ± 0.014 | 0.913 ± 0.029 | 0.668 ± 0.039 | 0.365 ± 0.025 | 0.333 ± 0.012 | 1.01 ± 0.1 | 0.94 ± 0.073 | 0.616 ± 0.019 | 0.459 ± 0.0087 | 0.4 ± 0.022 | 0.358 ± 0.035 | 0.241 ± 0.063 | 0.064 ± 0.011 |
| 93VU HEADNECK | 2.69 | 3.08 | 1.9 | 2.18 | 0.976 ± 0.077 | 1 ± 0.069 | 1.07 ± 0.02 | 1.09 ± 0.087 | 0.948 ± 0.033 | 0.945 ± 0.064 | 0.741 ± 0.044 | 0.388 ± 0.05 | 0.895 ± 0.046 | 0.883 ± 0.053 | 0.697 ± 0.075 | 0.59 ± 0.043 | 0.469 ± 0.085 | 0.46 ± 0.049 | 0.387 ± 0.017 | 0.302 ± 0.022 |
| 22RV1 PROSTATE | 2.46 | 2.97 | 3.06 | 1.82 | 1.07 ± 0.021 | 1.08 ± 0.059 | 0.99 ± 0.015 | 1.01 ± 0.02 | 1.03 ± 0.054 | 0.854 ± 0.037 | 0.626 ± 0.064 | 0.489 ± 0.029 | 1.03 ± 0.098 | 1.05 ± 0.063 | 1.01 ± 0.037 | 0.977 ± 0.087 | 0.984 ± 0.052 | 0.916 ± 0.028 | 0.737 ± 0.057 | 0.515 ± 0.065 |
| MFM223 BREAST | 2.85 | 2.38 | 3.2 | 2.02 | 1.15 ± 0.029 | 1.1 ± 0.012 | 1.09 ± 0.11 | 1.05 ± 0.069 | 0.748 ± 0.047 | 0.408 ± 0.036 | 0.226 ± 0.018 | 0.193 ± 0.025 | 1.13 ± 0.076 | 1.16 ± 0.11 | 1.13 ± 0.097 | 1.13 ± 0.031 | 1.11 ± 0.086 | 1.04 ± 0.1 | 0.803 ± 0.059 | 0.365 ± 0.021 |
| HU09 BONE | 2.37 | 2.19 | 3.05 | 1.39 | 0.977 ± 0.039 | 1.02 ± 0.062 | 1.02 ± 0.058 | 0.975 ± 0.015 | 0.6343 ± 0.0057 | 0.372 ± 0.033 | 0.073 ± 0.0061 | 0.0617 ± 0.011 | 1.08 ± 0.085 | 1.02 ± 0.1 | 1.16 ± 0.074 | 1.14 ± 0.087 | 1.12 ± 0.067 | 1.06 ± 0.15 | 0.6 ± 0.049 | 0.231 ± 0.012 |
| YAMATO SYNOVIAL | 1.68 | 2.58 | 4.09 | 2.53 | 1.32 ± 0.11 | 1.28 ± 0.16 | 1.32 ± 0.093 | 1.33 ± 0.12 | 0.8 ± 0.032 | 0.682 ± 0.077 | 0.285 ± 0.011 | 0.258 ± 0.017 | 1.22 ± 0.061 | 1.34 ± 0.096 | 1.32 ± 0.15 | 1.18 ± 0.0093 | 1.23 ± 0.037 | 1.27 ± 0.07 | 1.16 ± 0.035 | 0.739 ± 0.02 |
| SCC003 HEADNECK | 2.85 | 3.25 | 2.48 | 2.21 | 1.03 ± 0.12 | 1.05 ± 0.21 | 1.1 ± 0.083 | 1.12 ± 0.041 | 1.1 ± 0.14 | 1.1 ± 0.095 | 0.902 ± 0.11 | 0.86 ± 0.12 | 1.11 ± 0.093 | 1.04 ± 0.045 | 0.941 ± 0.1 | 0.901 ± 0.095 | 0.636 ± 0.056 | 0.557 ± 0.0066 | 0.518 ± 0.068 | 0.425 ± 0.058 |
